ChEMBL document CHEMBL4020842, “Discovery of N1-(4-((7-Cyclopentyl-6-(dimethylcarbamoyl)-7 H-pyrrolo[2,3- d]pyrimidin-2-yl)amino)phenyl)- N8-hydroxyoctanediamide as a Novel Inhibitor Targeting Cyclin-dependent Kinase 4/9 (CDK4/9) and Histone Deacetlyase1 (HDAC1) against Malignant Cancer” (J Med Chem, 2018)

Tests used:
[1] = molecular target: CDK4/Cyclin D3 (Homo sapiens, UniProt P11802); assay: Inhibition of recombinant human full length N-terminal GST-tagged CDK4/Cyclin-D3 co-expressed in baculovirus infected sf21 cells using Rb substrate in presence of [gamma33P]ATP after 10 mins by scintillation counting method
[2] = molecular target: T1, Histone deacetylase 1 (Homo sapiens, UniProt Q13547); assay: Potency index, ratio of vorinostat IC50 to compound IC50 for HDAC1 (unknown origin)
[3] = molecular target: T1, Histone deacetylase 1; assay: Inhibition of HDAC1 (unknown origin)

Chain of CDK4/Cyclin D3 (P11802 whole entry): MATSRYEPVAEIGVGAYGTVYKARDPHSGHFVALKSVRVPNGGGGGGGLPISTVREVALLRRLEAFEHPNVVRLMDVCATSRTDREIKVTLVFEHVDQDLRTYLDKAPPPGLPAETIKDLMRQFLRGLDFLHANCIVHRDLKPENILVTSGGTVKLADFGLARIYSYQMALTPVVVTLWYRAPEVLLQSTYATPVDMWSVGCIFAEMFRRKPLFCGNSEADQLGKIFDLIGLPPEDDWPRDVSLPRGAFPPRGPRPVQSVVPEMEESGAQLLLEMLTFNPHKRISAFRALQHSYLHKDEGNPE
Chain of CDK4/Cyclin D3 (P30281 whole entry, further chain): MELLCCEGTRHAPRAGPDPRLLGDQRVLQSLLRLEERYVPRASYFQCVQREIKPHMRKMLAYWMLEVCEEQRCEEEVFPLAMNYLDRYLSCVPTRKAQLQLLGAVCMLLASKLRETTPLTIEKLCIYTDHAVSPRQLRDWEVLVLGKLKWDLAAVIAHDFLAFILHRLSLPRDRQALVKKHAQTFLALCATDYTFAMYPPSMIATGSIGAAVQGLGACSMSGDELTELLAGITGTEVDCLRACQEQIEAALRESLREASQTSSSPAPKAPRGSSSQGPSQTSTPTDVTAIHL
T1 sequence (Q13547 whole entry): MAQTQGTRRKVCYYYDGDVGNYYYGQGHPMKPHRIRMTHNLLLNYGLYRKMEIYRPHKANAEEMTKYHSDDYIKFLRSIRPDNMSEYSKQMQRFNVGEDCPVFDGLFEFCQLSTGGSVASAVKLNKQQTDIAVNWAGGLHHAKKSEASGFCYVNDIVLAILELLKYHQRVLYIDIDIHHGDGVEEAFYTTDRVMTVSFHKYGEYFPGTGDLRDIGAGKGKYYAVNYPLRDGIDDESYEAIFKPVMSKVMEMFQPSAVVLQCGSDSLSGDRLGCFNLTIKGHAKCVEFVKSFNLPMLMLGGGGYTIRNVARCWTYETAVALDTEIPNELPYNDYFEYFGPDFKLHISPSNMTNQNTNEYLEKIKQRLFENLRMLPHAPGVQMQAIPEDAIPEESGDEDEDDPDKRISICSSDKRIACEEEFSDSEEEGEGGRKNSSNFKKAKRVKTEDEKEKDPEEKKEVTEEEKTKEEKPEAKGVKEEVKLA

IC50 [1] [nM]	Ratio IC50 [2]	IC50 [3] [nM]	Structure (SMILES)
10	10 to 100	> 5000	CN(C)C(=O)c1cc2cnc(Nc3ccc(NC(=O)CCCCCCCO)cc3)nc2n1C1CCCC1
8.4	10 to 100	1.6	CN(C)C(=O)c1cc2cnc(Nc3ccc(NC(=O)NCCCCCC(=O)NO)cc3)nc2n1C1CCCC1
8.1	10 to 100	3	CN(C)C(=O)c1cc2cnc(Nc3ccc(NC(=O)CCCCCCCC(=O)NO)cc3)nc2n1C1CCCC1
11	10 to 100	27	CN(C)C(=O)c1cc2cnc(Nc3ccc(NC(=O)CCCCC(=O)NO)cc3)nc2n1C1CCCC1
10	10 to 100	0.84	CN(C)C(=O)c1cc2cnc(Nc3ccc(NC(=O)CCCCCC(=O)NO)cc3)nc2n1C1CCCC1
29			CCCCCCCC(=O)Nc1ccc(Nc2ncc3cc(C(=O)N(C)C)n(C4CCCC4)c3n2)cc1
12	10 to 100	> 5000	COC(=O)CCCCCCC(=O)Nc1ccc(Nc2ncc3cc(C(=O)N(C)C)n(C4CCCC4)c3n2)cc1
26	10 to 100	1.6	CN(C)C(=O)c1cc2cnc(Nc3ccc(C(=O)NCCCCCCCC(=O)NO)cc3)nc2n1C1CCCC1
23			COC(=O)CCCCCNC(=O)Nc1ccc(Nc2ncc3cc(C(=O)N(C)C)n(C4CCCC4)c3n2)cc1
12	10 to 100	1.4	CN(C)C(=O)c1cc2cnc(Nc3ccc(C(=O)NCCCCCCC(=O)NO)cc3)nc2n1C1CCCC1

The next lines start with the molecule.

Structure (SMILES)	IC50 [1] [nM]	Ratio IC50 [2]	IC50 [3] [nM]
COC(=O)CCCCCCNC(=O)c1ccc(Nc2ncc3cc(C(=O)N(C)C)n(C4CCCC4)c3n2)cc1	11		
CN(C)C(=O)c1cc2cnc(Nc3ccc(C(=O)NCCCCCC(=O)NO)cc3)nc2n1C1CCCC1	9.6	10 to 100	0.53
COC(=O)CCCCCCC(=O)N1CCN(c2ccc(Nc3ncc4cc(C(=O)N(C)C)n(C5CCCC5)c4n3)nc2)CC1	13	10 to 100	> 5000
CN(C)C(=O)c1cc2cnc(Nc3ccc(N4CCN(C(=O)CCCCCCC(=O)NO)CC4)cn3)nc2n1C1CCCC1	13	10 to 100	39
O=C(CCCCCCC(=O)Nc1ccc(Nc2ncc3ncn(C4CCCC4)c3n2)cc1)NO	> 5000	10 to 100	2.6
COC(=O)CCCCCCC(=O)Nc1ccccc1Nc1ncc2cc(C(=O)N(C)C)n(C3CCCC3)c2n1	> 5000		
COC(=O)CCCCNC(=O)c1ccc(Nc2ncc3cc(C(=O)N(C)C)n(C4CCCC4)c3n2)cc1	6.3		
COC(=O)CCCCCCC(=O)Nc1cccc(Nc2ncc3cc(C(=O)N(C)C)n(C4CCCC4)c3n2)c1	26		
COC(=O)CCCCCCC(=O)NCc1ccc(Nc2ncc3cc(C(=O)N(C)C)n(C4CCCC4)c3n2)cc1	25		
O=C(CCCCCCC(=O)Nc1ccc(Nc2ncc3nnn(C4CCCC4)c3n2)cc1)NO	1140	10 to 100	433
COC(=O)CCCCCCC(=O)Nc1ccc(Nc2ncc3nnn(C4CCCC4)c3n2)cc1	857	10 to 100	> 5000
